Entries after “also recorded” stand apart in the source; their conditions may differ. Counter-ions that a name gives are not always drawn.

The text below walks through data of US12600740B2, “Fluorinated N-acetyl glucosamine analogs and xylose derivatives” (UTI Limited Partnership, priority 2018, dated 2026).

Data set [1] has as its system CSPG production by astrocytes. Description: Western blot of astrocyte conditioned medium, MAB2030 (chondroitin sulfate GAG stubs). The format is cell-based, mouse. Conditions: astrocyte conditioned media, 50 μM, 48 hours. An excerpt:
Astrocytes are major producers of CSPGs following injury in the CNS [Jones, L. L., Margolis, R. U. & Tuszynski, M. H. The chondroitin sulfate proteoglycans neurocan, brevican, phosphacan, and versican are differentially regulated following spinal cord injury. Experimental Neurology 182, 399-411 (2003); Tang, X., Davies, J. E. & Davies, S. J. Changes in distribution, cell associations, and protein expression levels of NG2, neurocan, phosphacan, brevican, versican V2, and tenascin-C during acute to chronic maturation of spinal cord scar tissue. […] The Journal of neuroscience: the official journal of the Society for Neuroscience 20, 2427-2438 (2000); McKeon, R. J., Jurynec, M. J. & Buck, C. R. The chondroitin sulfate proteoglycans neurocan and phosphacan are expressed by reactive astrocytes in the chronic CNS glial scar. The Journal of neuroscience: the official journal of the Society for Neuroscience 19, 10778-10788 (1999); Haas, C. A., Rauch, U., Thon, N., Merten, T. & Deller, T. Entorhinal cortex lesion in adult rats induces the expression of the neuronal chondroitin sulfate proteoglycan neurocan in reactive astrocytes. The Journal of neuroscience: the official journal of the Society for Neuroscience 19, 9953-9963 (1999)] and they may help drive progression of disability in a model of progressive MS [Mayo, L. et al. Regulation of astrocyte activation by glycolipids drives chronic CNS inflammation. Nature medicine 20, 1147-1156 (2014)]. Therefore astrocytes were used as model cells to determine the ability of the sugar analogs to reduce synthesis of CSPGs. Since CSPGs are exported out of cells, the conditioned media from analog-treated astrocytes were probed by Western blots (FIG. 4). We used antibodies to both the stubs of chondroitin sulfate GAGs attached to the core protein (MAB2030) and to intact 4-sulfated chondroitin sulfate sidechains (2H6) (FIG. 4a). Particularly, we used the 2H6 antibody to label intact 4-sulfated chondroitin sulfate sidechains, and the MAB2030 antibody to detect the stubs of chondroitin sulfate GAGs attached to the core protein. […] 1998, 160 (8), 3812-3819. Poole Poole C. A.; Glant T. T.; Schofield J. R.; Chondrons from articular cartilage. (IV). Immunolocalization of proteoglycan epitopes in isolated canine tibial chondrons. J. Histochem. Cytochem. 1991, 39 (9), 1175-1187].
Astrocytes were plated in uncoated 6-well plates (3 replicate wells per treatment) at 1×10^6 cells/well in mixed glial media, and incubated at 5% CO2 and 37° C. Astrocytes were treated with compounds at 50 μM in AIM-V media for 48 hours. Media was pooled from 3 replicate wells in 15 ml 100K cutoff centricon tubes (EMD Millipore, #UFC905008), which were spun on an ultracentrifuge at 5000× g for 2 cycles of 10 minutes each. When harvested, the cell lysate was kept on ice for 5 minutes with 250 μL of RIPA buffer (ThermoFisher Scientific #89900) containing proteinase inhibitor, and then collected and centrifuged at 14000 g for 5 minutes. Total protein was quantified using a Bradford assay. Conditioned media that were to be probed for chondroitin 4-sulfate GAGs (Millipore, #MAB2030) were first digested with 0.2 U/ml chondroitinase ABC for overnight at 37° C. to remove chondroitin sulfate sidechains. Blots that were to be probed with CSA (2H6, Cosmo) or CS56 (Abcam #ab11570) were not exposed to chondroitinase ABC. Samples were heat denatured with NuPAGE® LDS Sample buffer at 70° C. for 10 minutes and then loaded into 3-8% tris-acetate pre-cast gels (ThermoFisher, #EA0478BOX). The gels were electrophoresed at a constant 150 V for 90 minutes and transferred to a […] polyvinylidene fluoride membrane at a constant 250 mA for 60 minutes. The membranes were blocked for one hour with 10% skim milk in Tris-buffered saline (TBS; 0.9% NaCl, 10 mM Tris-HCl, pH 7.5) containing 0.5% Tween 20 (TBS-T). Primary antibodies were added in 3% skim milk and incubated overnight at 4° C. […]
(In western blotting, separated proteins are transferred to a membrane and probed.)

Data set [2] deals with oligodendrocyte precursor cells (OPCs). Briefly: Growth of OPCs on astrocyte-secreted extracellular matrix. The format is cell-based, mouse. Conditions: astrocytes treated 48 hours, then removed; OPCs plated on matrix. An excerpt:
The process of remyelination requires oligodendrocyte lineage cells to undergo process outgrowth prior to their expression of mature myelin proteins for repair. Thus, process outgrowth in culture by cells of the oligodendrocyte lineage has been used as one surrogate for myelinating potential in vivo [Keough, M. B.; Rogers, J. A.; Zhang, P.; Jensen, S. K.; Stephenson, E. L.; Chen, T.; Hurlbert, M. G.; Lau, L. W.; Rawji, K. S.; Plemel, J. R. et al. An inhibitor of chondroitin sulfate proteoglycan synthesis promotes central nervous system remyelination. Nat. Commun. 2016, 7, 11312], since an oligodendrocyte needs to elaborate multiple protrusions emanating in several directions to contact many axons, and where these processes then compact around axons to form myelin segments. The presence of CSPGs in culture impairs the process outgrowth of OPCs, and this has been linked to reduced remyelination capacity in vivo [Keough, M. B.; Rogers, J. A.; Zhang, P.; Jensen, S. K.; Stephenson, E. L.; Chen, T.; Hurlbert, M. G.; Lau, L. W.; Rawji, K. S.; Plemel, J. R. et al. An inhibitor of chondroitin sulfate proteoglycan synthesis promotes central nervous system remyelination. Nat. Commun. 2016, 7, 11312]. It was reported previously that astrocytes in culture produce a plate-bound matrix abundant in CSPGs, that is left behind once astrocytes are removed from the plate, and this CSPG-containing matrix inhibits the outgrowth of plated OPCs [Keough, M. B. et al. An inhibitor of chondroitin sulfate proteoglycan synthesis promotes central nervous system remyelination. Nature communications 7, 11312 (2016)] (FIG. 7a). Thus, astrocytes were treated with test compounds for 48 hours and they were then removed from the cell culture plate leaving only their secreted ECM behind (FIG. 7a). When OPCs were plated on the astrocyte matrix, the extent of their process outgrowth over […] of observation was inhibited (FIG. 7b). […] OPCs growing in the absence of astrocyte ECM can reach a mean outgrowth around 300 μm (FIG. 7b,c). […] These compounds were: Ac-4,4-diF-GlcNAc 16 (Ac-4,4-diF-GlcNAc), fluorosamine 3 and its O1-deacetylated analog 10 (Ac-4-F-GlcNAcOH), anomeric O-propanoate 7, anomeric O-butanoate 8 (Ac-4-F-GlcNAcOBu), and the 4-fluorinated GalNAc derivative 13 (Ac-4-F-GalNAc) (FIG. 7c).
In brief, cortices from postnatal days 1-3 mouse brains were dissociated with papain digestion and then plated as a mixed culture for 7 days in a 37° C. incubator at 8.5% CO2 whereupon OPCs and microglia tended to be loosely attached on top of a monolayer of astrocytes; the OPCs and microglia were then shaken off when placed on an orbital shaker at 220 r.p.m. at 37° C. and 5% CO2 overnight. The media containing microglia and OPCs were collected and added to a 100 mm tissue culture dish and left at 37° C. and 5% CO2 for 30 min, to allow preferential adhesion of microglia. The media were collected again, now containing OPCs, and used as the OPC-enriched isolates for experiments. For the remaining adhered cells, largely astrocytes, these were removed with 0.25% trypsin and after centrifugation and washing, these astrocytes were plated at a density of 1.0×10^5 cells in flat bottom 96-well plates coated with 10 μg/ml poly-L-lysine. Cells were grown for 7 days at 37° C. and 5% CO2 in MGM and daily media changes. Astrocytes were carefully removed with EDTA treatment (0.2 g EDTA (Na4) per liter PBS, 30 minutes at 37° C. and 5% CO2) and mechanical dislodgement with a micropipetter. The remaining ECM left behind was covered with PBS at 4° C. until OPCs were seeded. Enriched OPCs from mixed glial cultures were seeded at a density of 5-10×10^4 cells per well in OPC media and grown at 37° C. and 8.5% CO2 for 18-24 h and then were fixed with 4% ice-cold paraformaldehyde at 4° C. for 10 min, rinsed with PBS, and stored at 4° C. until immunocytochemistry. […]

The next data set relates to TNFα. Briefly: TNFα ELISA of LPS-stimulated bone marrow-derived macrophages. The format is cell-based, mouse. Conditions: BMDMs, 50 μM, LPS 100 ng/ml, 24 hours. How it is done:
Multiple Sclerosis: Mechanisms and Immunotherapy. Neuron 97, 742-768 (2018)]. It was tested whether the sugar analogs could affect the activity of macrophages, using bone marrow-derived macrophages (BMDMs) stimulated with lipopolysaccharide (LPS, 100 ng/ml). The sugar analogs were added at 50 μM prior to LPS, and the conditioned medium was collected after 24 hours and assayed for levels of the secreted cytokine TNFα. […] Testing Toxicity of Sugar Analogs
Femurs were carefully removed from euthanized female C57BI/6 mice, and marrow was flushed into a culture plate with cold complete bone marrow growth medium (DMEM, 10% fetal bovine serum, and the supplements 1% penicillin/streptomycin, 1% glutamine, 1% non-essential amino acids, and 10% supernatant from L929 cell-line enriched in macrophage-colony stimulating factor). Cells were spun at 1100 rpm for 10 minutes, resuspended in fresh growth medium and plated at 10×10^6 cells/ml in a 10 cm culture dish. Cells were grown in DMEM with supplements and L929 supernatant for 5 days, then half the medium was replaced with fresh growth medium. On day 7 growth medium was replaced with DMEM with 10% FBS and supplements. Cells were used on day 8, and experiments were conducted in DMEM with 1% FBS and supplements unless otherwise specified.
BMDM were plated at 25,000 cells in 96-well plates in DMEM+L929 media. After 24 hours media was changed to DMEM+1% FBS. One hour later, cells were treated with […] compounds or PBS. After 1 hour LPS (final concentration 100 ng/ml) was added. Following 24 hours, conditioned media was harvested for TNFα ELISA (Thermo Scientific), which was performed according to manufacturer's instructions.
On the technique in general: An ELISA detects its analyte on a solid surface through an enzyme-linked reagent.

Another data set relates to mouse astrocytes. Briefly: Propidium iodide/calcein AM toxicity on astrocytes. The format is cell-based. The conditions noted are these: 100 μM, 48 hours. Here is the method: Toxicity on astrocytes was assayed with propidium iodide/calcein AM […]. Live cells convert calcein AM into a green fluorescent product, whereas dying/dead cells are stained with propidium iodide.
96-well plates were imaged with ImageXpress® Micro Cellular Imaging and Analysis System (Molecular Devices, Sunnyvale, CA). Twelve images per well were collected at ×10 magnification. Images were processed with MetaXpress analysis software. OPC outgrowth was calculated by the MetaExpress® “neurite outgrowth” software module which uses fluorescence and user-modified parameters to document the overall extent of processes emanating from the cell soma, regardless of size of the protrusions or the number of branches. This was previously detailed elsewhere [Cua, R. C.; Lau, L. W.; Keough, M. B.; Midha, R.; Apte, S. S.; and Yong, V. W. Overcoming neurite-inhibitory chondroitin sulfate proteoglycans in the astrocyte matrix. Glia 2013, 61 (6), 972-84]. Live-dead cell assay was calculated with MetaXpress analysis software with the “multiwavelength cell scoring”, which uses fluorescent intensity to measure co-localization of calcein AM, propidium iodide, and […]. Data from the 12 images were averaged to a single data point per well, wherein the OPC outgrowth data calculated from the MetaExpress® “neurite outgrowth” readout was divided by data from the same 12 fields of cell number that was acquired through the multiwavelength cell scoring. This provided mean outgrowth per cell per well, with four well replicates per treatment. Experiments were repeated at least twice.
A mixture was created containing propidium iodide (10 μg/ml) to stain dead cells, 10 μM Calcein AM (ThermoFisher, #C3100MP) to identify live cells, and 2 drops per ml of media of NucBlue™ Live ReadyProbes™ Reagent (ThermoFisher, #R37605) to identify nuclei. The mixture was added to plate media and incubated for 20-30 minutes at 37° C. and 5% CO2 before imaging. Excitation/emission of calcein-AM (λex 490 nm, λem 515 nm), propidium iodide (λex 535 nm, λem 617 nm), and nuclear blue (λex 350 nm, λem 461 nm) was performed using ImageXpress® Micro Cellular Imaging and Analysis System (Molecular Devices, Sunnyvale, CA) and analyzed by MetaExpress multiwavelength cell scoring program.

`CC(=O)NC1C(OC(C)=O)OC(C(F)F)[C@@H](OC(C)=O)C1OC(C)=O` (stereo in doubt) [Compound 18, 2-acetamido-1,3,4-tri-O-acetyl-2,6-dideoxy-6,6-difluoro-α/β-D-glucopyranose]: in data set [1], the “effect on CSPG production by astrocytes” value is on record as “did not decrease CSPG production in astrocytes”. Moreover, the “mean process outgrowth of OPCs on astrocyte ECM” value in data set [2] is “significantly enhanced OPC outgrowth”.

Turning to `CC(=O)O[C@@H]1[C@@H](OC(C)=O)[C@H](OCCCCCCS(=O)(=O)O)OC[C@H]1OC(C)=O` [Compound 23, 6-Sulfohexyl 2,3,4-tri-O-acetyl-β-D-xylopyranoside, sodium salt], the “effect on CSPG production by astrocytes” value in data set [1] (sodium salt) is listed as “CSPG production was not impacted; also recorded: did not decrease CSPG production in astrocytes”. In data set [2], the “mean process outgrowth of OPCs on astrocyte ECM” value is “significantly enhanced OPC outgrowth”.

Take `CC(=O)O[C@H]1OC[C@@H](F)[C@H](OC(C)=O)[C@H]1OC(C)=O` [Compound 27, 1,2,3-Tri-O-acetyl-4-deoxy-4-fluoro-α-D-xylopyranose]: in the data set on TNFα, the “TNFα production by LPS-stimulated macrophages” value is “enhanced TNFα levels”. The “effect on CSPG production by astrocytes” value in data set [1] is “did not reduce CSPG production”.

Consider `OO` [Compound H2O2, reference compound], for which the “toxicity on astrocytes (propidium iodide/calcein AM)” value in the data set with mouse astrocytes is recorded as “caused a significant increase in toxicity; also recorded: caused increase in propidium iodide-positive staining”.
